Results as given in US9408393B2, “Bismuth-thiols as antiseptics for agricultural, industrial and other uses” (Microbion Corporation, priority 2010, dated 2016).
Read-outs that look alike come from different tables or passages of the source.

Tests used:
[1] = system: MRSA clinical isolates; assay: Broth dilution MIC in BHIG/X medium with subMIC BisEDT; type: cell-based, Staphylococcus aureus; details: for MIC: Staphylococcus aureus, MRSA, 12 MRSA clinical isolates, BHIG/X, mean ± SD, read-out: MIC
Method: (§1) Broth dilution antimicrobial susceptibility studies were performed against 12 MRSA strains using several antibiotics combined with subMIC levels of BisEDT (Table 18). Both the biofilm-prevention concentration (BPC) and the minimum inhibitory concentration (MIC) were determined in a special biofilm culture medium (BHIG/X). […] These strains were already sensitive to vancomycin, but were made considerably moreso in the presence of subMIC BisEDT.
In this particular study, the data indicated synergy between BisEDT and cefepime (FIC<0.5), with many of the isolates at the breakpoint for sensitivity.

[2] = system: MRSA clinical isolates; details: cited from earlier work; for MIC Standards, R (resistance): Standard MIC breakpoint for resistance; for MIC Standards, S (antibiotic sensitivity): Standard MIC breakpoint for sensitivity
[3] = system: S. epidermidis; assay: Growth inhibition (MIC) and MBC, BisEDT and antibiotics; type: cell-based, Staphylococcus epidermidis
Excerpt: Results are expressed as the mean change in MIC (dilution steps) with increasing BisEDT (n=3). See legend in FIG. 5 for antibiotic definitions.
The MIC change was most pronounced for clindamycin and gentamicin, followed by vancomycin, cefazolin, minocycline, gatifloxacin and nafcillin, with rifampicin unaffected.
Minimum bactericidal concentration (MBC) for most antibiotics tested against S. epidermidis decreased slightly with subMIC BisEDT. […] Clindamycin is a bacteriostatic agent, which explains its lack of bactericidal activity. Cefazolin resistance was reversed with respect to the MBC [Domenico et al., 2003]. These effects were additive.

[4] = system: S. epidermidis S2400-1 biofilm; assay: Biofilm prevention, BisEDT-antibiotic combinations; type: cell-based, Staphylococcus epidermidis; details: for Δ (0.05 BE), biofilm prevention: 0.05 μg/ml BisEDT
Method: (§2) S. epidermidis grown in TSB+2% glucose in polystyrene plates for 48 h at 37° C. Gatifloxacin (GF), clindamycin (CM), minocycline (MC), gentamicin (GM), vancomycin (VM), cefazolin (CZ), nafcillin (NC), and rifampicin (RP). […]

[5] = system: S. epidermidis biofilm; assay: Biofilm prevention concentration (BPC), BisEDT and antibiotics; type: cell-based, Staphylococcus epidermidis; details: 0.05 μg/ml BisEDT
Method: as §2

[6] = system: MRSA clinical isolates biofilm; assay: Biofilm-prevention concentration (BPC) in BHIG/X medium with subMIC BisEDT; type: cell-based, Staphylococcus aureus; details: 12 MRSA clinical isolates, mean ± SD
Method: as §1

[7] = system: S. epidermidis; assay: Broth dilution MIC/MBC, BT-antibiotic combinations; type: cell-based, Staphylococcus epidermidis; details: for Δ (0.1 BE), MBC: 0.1 μg/ml BisEDT
Method: Materials & Methods. Susceptibility studies were performed by broth dilution in 96-well tissue culture plates (Nalge Nunc International, Denmark) in accordance with NCCLS protocols (National Committee for Clinical Laboratory Standards. (1997). Methods for Dilution Antimicrobial Susceptibility Tests for Bacteria that Grow Aerobically: Approved Standard M7-A2 and Informational Supplement M100-S10. NCCLS, Wayne, Pa., USA).
Briefly, overnight bacterial cultures were used to prepare 0.5 McFarland standard suspensions, which were further diluted 1:50 (˜2×10^6 cfu/mL) in cation-adjusted Mueller-Hinton broth medium (BBL, Cockeysville, Md., USA). BTs (prepared as described above) and antibiotics were added at incremental concentrations, keeping the final volume constant at 0.2 mL. Cultures were incubated for 24 h at 37° C. and turbidity was assessed by absorption at 630 nm using an ELISA plate reader (Biotek Instruments, Winooski, Vt., USA) according to the manufacturer's recommendations. […] Viable bacterial counts (cfu/mL) were determined by standard plating on nutrient agar.
The checkerboard method was used to assess the activity of antimicrobial combinations. The fractional inhibitory concentration index (FICI) and the fractional bactericidal concentration index (FBCI) were calculated, according to Eliopoulos et al. (Eliopoulos and Moellering, (1996) Antimicrobial combinations. In Antibiotics in Laboratory Medicine (Lorian, V., Ed.), pp. 330-96, Williams and Wilkins, Baltimore, Md., USA). Synergy was defined as an FICI or FBCI index of […], no interaction at >0.5-4 and antagonism at >4 (Odds, F C (2003) Synergy, antagonism, and what the chequerboard puts between them. Journal of Antimicrobial Chemotherapy 52:1). Synergy was also defined conventionally as ≧4-fold decrease in antibiotic concentration.

[8] = system: lawn of MRSA (Methicillin-resistant S. aureus); assay: Antibiotic-soaked discs on bacterial lawn with and without BisEDT; type: cell-based, Staphylococcus aureus; details: antibiotic discs combined with BisEDT 0.05 μg/ml
Method: FIGS. 4A and 4B show the subinhibitory BisEDT reversing antibiotic-resistance to several antibiotics. Effects of antibiotics with and without BisEDT (0.05 μg/ml) on a lawn of MRSA (Methicillin-resistant S. aureus) is shown. […] [GM=gentamicin, CZ=cefazolin, FEP=cefepime, IPM=imipenim, SAM=ampicillin/sulbactam, LVX=levofloxacin.

[9] = system: Klebsiella pneumoniae; assay: Single-point BisEDT-antibiotic combination FICI; type: cell-based; details: KP 1231
[10] = system: P. aeruginosa; assay: Checkerboard broth microdilution MIC and FICI; type: cell-based, Pseudomonas aeruginosa; details: compound alone; for MIC: Pseudomonas aeruginosa, read-out: MIC (μg/mL) Alone
[11] = system: Pseudomonas aeruginosa; assay: Single-point BisEDT-antibiotic combination FICI; type: cell-based; details: PA 1380
[12] = system: Escherichia coli; assay: Single-point BisEDT-antibiotic combination FICI; type: cell-based
[13] = system: Acinetobacter baumanii; assay: Single-point BisEDT-antibiotic combination FICI; type: cell-based; details: Abau 2594
[14] = system: Burkholderia cepacia; assay: Single-point BisEDT-antibiotic combination FICI; type: cell-based; details: Bcep 1756
[15] = system: Bukholderia multivorans; assay: Single-point BisEDT-antibiotic combination FICI; type: cell-based; details: Bmult 5665
[16] = system: MRSA; assay: Combination MIC study, nafcillin or gentamicin + BisEDT, TSB with 2% glucose; type: cell-based, Staphylococcus aureus
Excerpt: BTs reversed the resistance of all four gentamicin-resistant isolates tested to clinically relevant concentrations [Domenico et al., 2002]. The MICs for these antimicrobial agents was reduced substantially, especially for gentamicin.

[17] = S. epidermidis S2400-1, 0.05 μg/ml BisEDT
[18] = S. epidermidis S2400-1, BisEDT 0 μg/ml
[19] = S. epidermidis S2400-1, BisEDT 0.0 μg/ml
[20] = S. epidermidis S2400-1, BisEDT 0.05 μg/ml
[21] = S. epidermidis S2400-1, BisEDT 0.1 μg/ml

Row | SMILES | MIC ([1]; BisEDT 0 μg/mL) [µg/mL] | MIC ([1]; BisEDT 0.025 μg/mL) [µg/mL] | MIC ([1]; BisEDT 0.05 μg/mL) [µg/mL] | MIC ([1]; BisEDT 0.1 μg/mL) [µg/mL] | MIC Standards, R (resistance) [2] | MIC Standards, S (antibiotic sensitivity) [2] | Δ (0.05 BE), biofilm prevention [4] | Biofilm Prevention (antibiotic concentration) ([4]; BisEDT 0 μg/ml) [µg/mL] | Biofilm Prevention (antibiotic concentration) ([4]; BisEDT 0.05 μg/ml) [µg/mL] | Biofilm Prevention (antibiotic concentration) ([4]; BisEDT 0.1 μg/ml) [µg/mL] | Change of biofilm prevention concentration (BPC) [5] | BPC ([6]; BisEDT 0 μg/mL) [µg/mL] | BPC ([6]; BisEDT 0.025 μg/mL) [µg/mL] | BPC ([6]; BisEDT 0.05 μg/mL) [µg/mL] | BPC ([6]; BisEDT 0.1 μg/mL) [µg/mL] | Δ (0.05 BE), MIC [7, 17] | Δ (0.1 BE), MBC ([7]; S. epidermidis S2400-1) | MIC [7, 18] [µg/mL] | MBC [7, 19] [µg/mL] | MIC [7, 20] [µg/mL] | further results
1 | Cc1nnc(SCC2=C(C(=O)O)N3C(=O)[C@@H](NC(=O)Cn4cnnn4)[C@H]3SC2)s1 [Cefazolin, cefazolin] | 93 ± 75 | 99 ± 76 | 90 ± 60 | 45 ± 32 | ≧32 μg/ml | ≦8 μg/ml | 2.8 | 28 | 10 | 1 | modest decreases | 109 ± 86 | 76 ± 86 | 76 ± 105 | 34 ± 28 | 4.00 | 4.80 | 32 | 48 | 8 | Reduction in MBC with subMIC BisEDT [3]: 4- to 5 fold; MIC change (growth inhibition) with BisEDT ([3]; 0.1 μg/ml (0.5 μM) BisEDT): resistance was reversed to clinically relevant levels; Synergy, MBC ([7]; S. epidermidis S2400-1): + (Synergy was also defined conventionally as ≧4-fold decrease in antibiotic concentration); Synergy, MIC ([7]; S. epidermidis S2400-1): + (Synergy was also defined conventionally as ≧4-fold decrease in antibiotic concentration); MBC [7, 21]: 10 µg/mL; MIC [7, 21]: 1 µg/mL; Antibiotic action on MRSA lawn with subMIC BisEDT [8]: enhanced antibiotic action
2 | CO/N=C(\C(=O)N[C@@H]1C(=O)N2C(C(=O)[O-])=C(C[N+]3(C)CCCC3)CS[C@H]12)c1csc(N)n1 [Cefepime] | 45 ± 32 | 32 ± 28 | 37 ± 24 | 9.3 ± 6.1 | ≧32 μg/ml | ≦8 μg/ml | – | – | – | – | – | 24 ± 37 | 27 ± 28 | 18 ± 16 | 5.0 ± 7.3 | – | – | – | – | – | FICI, single-point BisEDT-antibiotic combination [9]: 1.11; Isolates in which BisEDT significantly enhanced inhibitory activity of cefepime ([1]; BisEDT at 0.1 μg/ml, 12 cefepime-resistant MRSA): 11 of 12; FIC, BisEDT and cefepime ([1]; cefepime-resistant MRSA isolates): < 0.5; MIC (μg/mL) Alone ([10]; P. aeruginosa 103): 1 µg/mL; MIC (μg/mL) Alone ([10]; P. aeruginosa 1479): 8 µg/mL; MIC (μg/mL) Alone ([10]; P. aeruginosa 2566): 16 µg/mL; MIC ([10]; P. aeruginosa 103): 2 µg/mL; MIC ([10]; P. aeruginosa 1381): 32 µg/mL; MIC ([10]; P. aeruginosa 1384): 2 µg/mL; MIC ([10]; P. aeruginosa 1474): 2 µg/mL; MIC ([10]; P. aeruginosa 1479): 4 µg/mL; MIC ([10]; P. aeruginosa 2566): 8 µg/mL; MIC ([10]; P. aeruginosa 2568): 2 µg/mL; FICI, single-point BisEDT-antibiotic combination [11]: 0.62; FICI, single-point BisEDT-antibiotic combination ([12]; EC 102): 0.87; FICI, single-point BisEDT-antibiotic combination ([12]; EC 2232): 0.96; FICI, single-point BisEDT-antibiotic combination [13]: 0.71; FICI, single-point BisEDT-antibiotic combination [14]: 1.34; FICI, single-point BisEDT-antibiotic combination [15]: 0.96; Antibiotic action on MRSA lawn with subMIC BisEDT [8]: enhanced antibiotic action
3 | CCOc1ccc2ccccc2c1C(=O)N[C@@H]1C(=O)N2[C@@H]1SC(C)(C)[C@@H]2C(=O)O [Nafcillin] | – | – | – | – | – | – | 0.8 | 48 | 64 | 8 | remained unaffected | – | – | – | – | 0.89 | 2.00 | 171 | 256 | 192 | Fold reduction of antibiotic MIC90 by BisEDT ([16]; BisEDT 0.2 μg/ml): over 4 fold; FIC ([16]; antibiotic combined with BisEDT 0.2 μg/ml): 0.74; Δ, MIC ([7]; S. epidermidis ATCC 35984, 0.05 μg/ml BisEDT): 3.2; MIC ([7]; S. epidermidis ATCC 35984, BisEDT 0.0 μg/ml): 16.00 µg/mL; MIC ([7]; S. epidermidis ATCC 35984, BisEDT 0.05 μg/ml): 5.00 µg/mL; MBC [7, 21]: 128 µg/mL; MIC [7, 21]: 68 µg/mL
